The numbers were not newly measured in patent publication US11504319B2, “Process of coloring keratinous material comprising the use of an organosilicon compound, an effect pigment, a further coloring compound and a film-forming polymer III” (Henkel AG & Co. KGaA, priority 2019, dated 2022), which cites them from elsewhere.

The conditions of the data set: 25° C.

On to `O=S(=O)([O-])c1ccc(N=Nc2c(O)ccc3ccccc23)cc1.[Na+]` [Acid Orange 7, sodium salt of 4-[(2-hydroxy-1-naphthyl)azo]benzene sulphonate], for which the solubility in water entry is recorded as “more than 7 g/L”.

`Nc1cc(S(=O)(=O)[O-])cc2cc(S(=O)(=O)[O-])c(N=Nc3ccccc3)c(O)c12.[Na+].[Na+]` [Acid Red 33, disodium salt of 5-amino-4-hydroxy-3-(phenylazo)-naphthalene-2,7-disulphonate]: the solubility in water is 2500 µg/mL.

Turning to `O=C([O-])c1c(Cl)c(Cl)c(Cl)c(Cl)c1-c1c2c(Br)cc(=O)c(Br)c-2oc2c(Br)c(O)cc(Br)c12.O=C([O-])c1c(Cl)c(Cl)c(Cl)c(Cl)c1-c1c2c(Br)cc(=O)c(Br)c-2oc2c(Br)c(O)cc(Br)c12.[Na+].[Na+]` [Acid Red 92, disodium salt of 3,4,5,6-tetrachloro-2-(1,4,5,8-tetrabromo-6-hydroxy-3-oxoxanthen-9-yl)benzoic acid], the solubility in water result was “greater than 10 g/L”.

Consider `O=C([O-])C1=NN(c2ccc(S(=O)(=O)[O-])cc2)C(=O)C1N=Nc1ccc(S(=O)(=O)[O-])cc1.[Na+].[Na+].[Na+]` (stereo not shown) [Acid Yellow 23, trisodium salt of 4,5-dihydro-5-oxo-1-(4-sulfophenyl)-4-((4-sulfophenyl)azo)-1H-pyrazole-3-carboxylic acid], for which the “solubility in water (in words)” value is reported as “highly soluble”.
